{
  "source": "patent US12187754B2",
  "about": "“LpxC inhibitors and uses thereof” (Blacksmith Medicines, Inc., priority 2021, dated 2025)",
  "key": {"[1]": {"test": "Solubility under physiological conditions", "assay_type": "physicochemical", "conditions": "for example at pH 7.4"}, "S. aureus": {"system": "S. aureus", "test": "Inhibition of gram-positive bacterial cell lines", "assay_type": "cell-based"}, "K. pneumoniae": {"system": "K. pneumoniae", "test": "MIC against gram-negative bacterial cell lines (K. pneumoniae)", "assay_type": "cell-based", "conditions": "Klebsiella pneumoniae"}, "K. pneumoniae BAA-1705": {"system": "K. pneumoniae BAA-1705", "test": "Mouse urinary tract infection model, K. pneumoniae BAA-1705", "assay_type": "in vivo", "conditions": "for Bladder Terminal Burden / Kidney Terminal Burden / Urine Terminal Burden: mice, 96 hours", "description": "(§1) Compound A and its prodrugs as disclosed herein were tested in an in vivo mouse model for Urinary Tract Infection. Briefly, mice were infected with E. coli UTI 89 to cause a UTI infection and were treated with compounds disclosed herein.\n(§2) Five days prior to infection, C3H/HeNR female mice were preconditioned with drinking water containing 5% glucose. Mice were rendered unconscious using parenteral anaesthesia (ketamine/medetomidine) then 0.05 mL of a bacterial suspension of E. coli UTI 89 (1.2×10^9 CFU/mL (6.2×10^7 CFU/mouse) was administered transurethrally into the bladder to cause an ascending UTI infection.\n[…]; […]; […]; […] for 3 days (six doses total). Ciprofloxacin was given as a control at 10 mg/kg/dose IV every 12 hours. Compound A was formulated in 10% DMSO, 5% Cremophor, 85% SFI; the remaining compounds used a sterile phosphate-buffered saline (PBS) formulation. Each group was comprised of five mice each.\n(§3) Urine, bladder, and kidney were harvested at 24 h (pre-treatment group only) and 96 h post infection and quantitatively cultured.\nThe experiment was repeated using K. pneumoniae BAA-1705 (MDR; MIC90 strain). Table 5 and FIG. 2 summarize the results, showing the average terminal burden of K. pneumoniae BAA-1705 in urine, bladder, and kidney at the conclusion of the study (96 hours)."}, "Thermal solubility": {"test": "Thermal solubility", "assay_type": "physicochemical", "conditions": "aqueous buffer, thermodynamic from solid; 100 mM potassium phosphate buffer pH 7.4, 24 h, 25° C.", "description": "Solubility of the compounds was assessed in 100 mM potassium phosphate buffer at pH 7.4 after 24 hours at room temperature.\nAccurately weighed K2HPO4 (2.79 g) and KH2PO4 (0.54 g) were dissolved in 90 mL of Milli-Q water and mixed well. Volume was made upto 200 mL with Milli-Q water and mixed well. The prepared phosphate buffer was stored at 2-8° C. and used within a month.\nApproximately 30 mg of test compound was added to approximately 1 mL of the potassium phosphate buffer, pH 7.4. If the visual inspection indicated precipitation, no further compound is added. If the visual inspection indicated a clear solution, further increments of compound were added until the solution was no longer clear.\nTest compounds and assay controls (caffeine) were further incubated for 24 h at 25° C. temperature on a thermomixer at a shaking speed of 1200 rpm. After incubation, the samples (200 μL) were transferred to a filtration plate to which a plate was attached at bottom for collecting the filtrate. The plate was centrifuged at 4000 rpm for 2 min and the filtrate was collected in the attached bottom plate. The filtrates were diluted using filtered buffer based on the initial amount of compound added. All samples were analysed by HPLC-UV method against 8 point calibration curve with concentrations ranging from 2.5 μg/mL to 1000 μg/mL."}, "E. coli": {"system": "E. coli", "test": "MIC against gram-negative bacterial cell lines (E. coli)", "assay_type": "cell-based", "conditions": "Escherichia coli"}, "E. coli UTI 89": {"system": "E. coli UTI 89", "test": "Mouse urinary tract infection model, E. coli UTI 89", "assay_type": "in vivo", "conditions": "for Bladder Terminal Burden / Kidney Terminal Burden / Urine Terminal Burden: mice, 96 h post infection", "description": "as §1, §2\nIV or PO treatment was started 24 h post infection with 3, 10, 15 mg/kg/dose IV Compound A; 3, 10, 15.30 mg/kg/dose IV Compound 1; 3, and 10 mg/kg/dose IV Compound 2; and 30 mg/kg/dose oral of either Compound 1 or 2 administered every 12 hours for 3 days (six doses total). Ciprofloxacin was given as a control at 10 mg/kg/dose IV every 12 hours. Compound A was formulated in 10% DMSO, 5% Cremophor, 85% SFI; the remaining compounds used a sterile phosphate-buffered saline (PBS) formulation. Each group was comprised of five mice each.\nas §3"}, "[2]": {"conditions": "3 mg/kg/dose IV every 12 hours for 3 days"}, "[3]": {"conditions": "10 mg/kg/dose IV every 12 hours for 3 days"}, "[4]": {"conditions": "15 mg/kg/dose IV every 12 hours for 3 days"}, "[5]": {"conditions": "E. coli UTI 89, mice, IV administration"}},
  "data": [
    {"smiles": "N#CC1CN(C[C@@H](Cc2nc[nH]c(=O)c2O)c2ccc(C#Cc3ccc(CN4CCOCC4)cc3)cc2)C1", "note": "[Compound A, (S)-1-(3-(5-hydroxy-6-oxo-1,6-dihydropyrimidin-4-yl)-2-(4-((4-(morpholinomethyl)phenyl)ethynyl)phenyl)propyl)azetidine-3-carbonitrile]", "values": [
      {"measurement": "solubility", "setting": "[1]", "value": "< 1000", "unit": "µg/mL"},
      {"measurement": "inhibition of gram-positive bacterial cell lines", "setting": "S. aureus", "value": "does not inhibit"},
      {"measurement": "MIC", "setting": "K. pneumoniae", "value": "< 1", "unit": "µg/mL"},
      {"measurement": "Bladder Terminal Burden", "setting": "K. pneumoniae BAA-1705; 10 mg/kg/dose IV", "value": "9.29 × 10^1 CFU/mL"},
      {"measurement": "Kidney Terminal Burden", "setting": "K. pneumoniae BAA-1705; 10 mg/kg/dose IV", "value": "3.47 × 10^2 CFU/mL"},
      {"measurement": "Urine Terminal Burden", "setting": "K. pneumoniae BAA-1705; 10 mg/kg/dose IV", "value": "2.72 × 10^0 CFU/mL"},
      {"measurement": "Bladder Terminal Burden", "setting": "K. pneumoniae BAA-1705; 30 mg/kg/dose IV", "value": "BLoD"},
      {"measurement": "Kidney Terminal Burden", "setting": "K. pneumoniae BAA-1705; 30 mg/kg/dose IV", "value": "7.48 × 10^1 CFU/mL"},
      {"measurement": "Urine Terminal Burden", "setting": "K. pneumoniae BAA-1705; 30 mg/kg/dose IV", "value": "7.41 × 10^3 CFU/mL"},
      {"measurement": "Bladder Terminal Burden", "setting": "K. pneumoniae BAA-1705; 60 mg/kg/dose IV", "value": "BLoD"},
      {"measurement": "Kidney Terminal Burden", "setting": "K. pneumoniae BAA-1705; 60 mg/kg/dose IV", "value": "3.17 × 10^0 CFU/mL"},
      {"measurement": "Urine Terminal Burden", "setting": "K. pneumoniae BAA-1705; 60 mg/kg/dose IV", "value": "BLoD"},
      {"measurement": "Bladder Terminal Burden", "setting": "K. pneumoniae BAA-1705; 90 mg/kg/dose PO", "value": "BLoD"},
      {"measurement": "Kidney Terminal Burden", "setting": "K. pneumoniae BAA-1705; 90 mg/kg/dose PO", "value": "3.01 × 10^1 CFU/mL"},
      {"measurement": "Urine Terminal Burden", "setting": "K. pneumoniae BAA-1705; 90 mg/kg/dose PO", "value": "7.06 × 10^0 CFU/mL"},
      {"measurement": "bacterial burden in kidney relative to vehicle-treated controls and the ciprofloxacin control", "setting": "K. pneumoniae BAA-1705; K. pneumoniae BAA-1705, mice", "value": "statistically significant reductions in bacterial burden in kidney"},
      {"measurement": "bacterial burden in urine relative to vehicle-treated controls and the ciprofloxacin control", "setting": "K. pneumoniae BAA-1705; K. pneumoniae BAA-1705, mice, except for the 30 mg/kg IV Compound A experiment", "value": "statistically significant reductions in bacterial burden in urine"},
      {"measurement": "solubility at 24 h", "setting": "Thermal solubility", "value": "< 50", "unit": "µg/mL"},
      {"measurement": "MIC", "setting": "E. coli", "value": "< 1", "unit": "µg/mL"},
      {"measurement": "Bladder Terminal Burden", "setting": "E. coli UTI 89; [2]", "value": "2.57 × 10^5 CFU/mL"},
      {"measurement": "Kidney Terminal Burden", "setting": "E. coli UTI 89; [2]", "value": "3.72 × 10^3 CFU/mL"},
      {"measurement": "Urine Terminal Burden", "setting": "E. coli UTI 89; [2]", "value": "3.03 × 10^5 CFU/mL"},
      {"measurement": "Bladder Terminal Burden", "setting": "E. coli UTI 89; [3]", "value": "3.48 × 10^5 CFU/mL"},
      {"measurement": "Kidney Terminal Burden", "setting": "E. coli UTI 89; [3]", "value": "4.44 × 10^2 CFU/mL"},
      {"measurement": "Urine Terminal Burden", "setting": "E. coli UTI 89; [3]", "value": "6.26 × 10^4 CFU/mL"},
      {"measurement": "Bladder Terminal Burden", "setting": "E. coli UTI 89; [4]", "value": "2.62 × 10^5 CFU/mL"},
      {"measurement": "Kidney Terminal Burden", "setting": "E. coli UTI 89; [4]", "value": "1.21 × 10^2 CFU/mL"},
      {"measurement": "Urine Terminal Burden", "setting": "E. coli UTI 89; [4]", "value": "3.78 × 10^3 CFU/mL"},
      {"measurement": "bacterial burden in urine relative to vehicle-treated controls", "setting": "E. coli UTI 89; E. coli UTI 89, mice", "value": "statistically significant reductions in bacterial burden in urine"},
      {"measurement": "bacterial burden in bladder relative to vehicle-treated controls", "setting": "E. coli UTI 89; [5]", "value": "reductions in bacterial burden in bladder"},
      {"measurement": "bacterial burden in kidney relative to vehicle-treated control", "setting": "E. coli UTI 89; [5]", "value": "statistically significant reductions in bacterial burden in kidney"}
    ]}
  ]
}
